Assay results reported in US20240139220A1, “TREATMENT OF HPV INFECTION” (priority 2022, published 2024).
In brackets after ≈: the same amount, converted by molar mass. Read-outs that look alike come from different tables or passages of the source.

How the values were obtained:
[1] = Hygroscicity by Dynamic Vapor Sorption (DVS) at 25° C.; type: physicochemical
Method: Hygroscopicity was investigated by DVS at 25° C., using the following method: […]

[2] = Approximate solubility in solvents at 25° C. and 50° C. by visual observation; type: physicochemical; settings: thermodynamic from solid, read-out: Solubility
Method: The maximum volume of each solvent added was 1 mL. Approximate solubility was determined by visual observation.
Maximum volume of each solvent added was 1 mL. Approximate solubility was determined by visual observation.

[3] = cycle of 40-0-95-0-45% relative humidity

Q: With `CCOC(=O)[C@H](C)N[P@](=O)(COCCn1cnc2c(OC)nc(N)nc21)OCc1ccccc1` (single isomer, unassigned) [Compound III, monofumarate] as the molecule, how does the “Fold increase of retained water content versus Compound II” value [1, 3] read?
A: 40 fold

Q: What about the “XRPD pattern after humidity cycle” value [1, 3] of the same molecule?
A: lose one of the peaks

Q: And the Water content retained ([1]; exposed to a cycle of 40-0-95-0-45% relative humidity)?
A: about 10%

Q: With `CCOC(=O)[C@H](C)NP(=O)(COCCn1cnc2c(OC)nc(N)nc21)OCc1ccccc1` (stereo partly drawn) [Compound I, ethyl(((2-(2-amino-6-methoxy-9H-purin-9-yl)ethoxy)methylxbenzyloxy)-phosphoryl)-L-alaninate] as the molecule, how does the Solubility ([2]; organic solvent or mixture, Acetone, 25° C.) read?
A: > 100 mg/mL

Q: And the Solubility ([2]; organic solvent or mixture, Acetone, 50° C.)?
A: > 500 mg/mL

Q: And the Solubility ([2]; organic solvent or mixture, Acetonitrile (ACN), 25° C.)?
A: > 100 mg/mL

Q: And the Solubility ([2]; organic solvent or mixture, Acetonitrile (ACN), 50° C.)?
A: > 500 mg/mL

Q: What about the Solubility ([2]; organic solvent or mixture, Dichloromethane (DCM), 25° C.) of the same molecule?
A: > 100 mg/mL

Q: What about the Solubility ([2]; organic solvent or mixture, Dichloromethane (DCM), 50° C.) of the same molecule?
A: > 500 mg/mL

Q: What about the Solubility ([2]; organic solvent or mixture, Ethanol (EtOH), 25° C.) of the same molecule?
A: > 100 mg/mL

Q: What about the Solubility ([2]; organic solvent or mixture, Ethanol (EtOH), 50° C.) of the same molecule?
A: > 500 mg/mL

Q: What about the Solubility ([2]; organic solvent or mixture, Ethyl acetate (EA), 25° C.) of the same molecule?
A: > 100 mg/mL

Q: What about the Solubility ([2]; organic solvent or mixture, Ethyl acetate (EA), 50° C.) of the same molecule?
A: > 500 mg/mL

Q: What about the Solubility ([2]; organic solvent or mixture, Heptanes, 25° C.) of the same molecule?
A: < 2 mg/mL

Q: What about the Solubility ([2]; organic solvent or mixture, Heptanes, 50° C.) of the same molecule?
A: < 10 mg/mL

Q: And the Solubility ([2]; organic solvent or mixture, Isopropanol (IPA), 25° C.)?
A: > 100 mg/mL

Q: And the Solubility ([2]; organic solvent or mixture, Isopropanol (IPA), 50° C.)?
A: > 500 mg/mL

Q: What about the Solubility ([2]; organic solvent or mixture, Isopropyl acetate (IPAc), 25° C.) of the same molecule?
A: > 100 mg/mL

Q: What about the Solubility ([2]; organic solvent or mixture, Isopropyl acetate (IPAc), 50° C.) of the same molecule?
A: > 500 mg/mL

Q: And the Solubility ([2]; organic solvent or mixture, Methanol (MeOH), 25° C.)?
A: > 100 mg/mL

Q: What about the Solubility ([2]; organic solvent or mixture, Methanol (MeOH), 50° C.) of the same molecule?
A: > 500 mg/mL

Q: And the Solubility ([2]; organic solvent or mixture, Methyl ethyl ketone (MEK), 25° C.)?
A: > 100 mg/mL

Q: What about the Solubility ([2]; organic solvent or mixture, Methyl ethyl ketone (MEK), 50° C.) of the same molecule?
A: > 500 mg/mL

Q: And the Solubility ([2]; organic solvent or mixture, Methyl t-butyl ether (MTBE), 25° C.)?
A: < 2 mg/mL

Q: What about the Solubility ([2]; organic solvent or mixture, Methyl t-butyl ether (MTBE), 50° C.) of the same molecule?
A: < 10 mg/mL

Q: And the Solubility ([2]; organic solvent or mixture, Tetrahydrofuran (THF), 25° C.)?
A: > 100 mg/mL

Q: And the Solubility ([2]; organic solvent or mixture, Tetrahydrofuran (THF), 50° C.)?
A: 167 to 250 mg/mL (≈ 339 to 508 mM)

Q: What about the Solubility ([2]; Water, 25° C.) of the same molecule?
A: 20 to 25 mg/mL (≈ 40.6 to 50.8 mM)

Q: What about the Solubility ([2]; Water, 50° C.) of the same molecule?
A: 25 to 27 mg/mL (≈ 50.8 to 54.8 mM)
